From ChEMBL document CHEMBL4000244, “Probing A-form DNA: A fluorescent aminosugar probe and dual recognition by anthraquinone-neomycin conjugates” (Bioorg Med Chem, 2017)

Experiments:
[1] = Binding affinity to 5'-GGGGGGGG-3' DNA hairpin assessed as change in fluorescence intensity at 1 uM after 45 mins by fluorescence quenching analysis relative to control
[2] = Binding affinity to 5'-GGGGCCGG-3' DNA hairpin assessed as change in fluorescence intensity at 1 uM after 45 mins by fluorescence quenching analysis relative to control
[3] = Binding affinity to 5'-CCCGGGGC-3' DNA hairpin assessed as change in fluorescence intensity at 1 uM after 45 mins by fluorescence quenching analysis relative to control
[4] = Binding affinity to 5'-CGCGCCCC-3' DNA hairpin assessed as change in fluorescence intensity at 1 uM after 45 mins by fluorescence quenching analysis relative to control
[5] = Binding affinity to 5'-GCCCCGCG-3' DNA hairpin assessed as change in fluorescence intensity at 1 uM after 45 mins by fluorescence quenching analysis relative to control
[6] = Binding affinity to 5'-CGCCCCGC-3' DNA hairpin assessed as change in fluorescence intensity at 1 uM after 45 mins by fluorescence quenching analysis relative to control
[7] = Binding affinity to 5'-CGGGGGCC-3' DNA hairpin assessed as change in fluorescence intensity at 1 uM after 45 mins by fluorescence quenching analysis relative to control
[8] = Binding affinity to 5'-GGCCGGGG-3' DNA hairpin assessed as change in fluorescence intensity at 1 uM after 45 mins by fluorescence quenching analysis relative to control
[9] = Binding affinity to 5'-GCGGGGCC-3' DNA hairpin assessed as change in fluorescence intensity at 1 uM after 45 mins by fluorescence quenching analysis relative to control
[10] = Binding affinity to 5'-CGGCGCCG-3' DNA hairpin assessed as change in fluorescence intensity at 1 uM after 45 mins by fluorescence quenching analysis relative to control
[11] = Binding affinity to 5'-CCCCGGGC-3' DNA hairpin assessed as change in fluorescence intensity at 1 uM after 45 mins by fluorescence quenching analysis relative to control
[12] = Binding affinity to 5'-GGCGGGGC-3' DNA hairpin assessed as change in fluorescence intensity at 1 uM after 45 mins by fluorescence quenching analysis relative to control
[13] = Binding affinity to 5'-GCCGGGGC-3' DNA hairpin assessed as change in fluorescence intensity at 1 uM after 45 mins by fluorescence quenching analysis relative to control
[14] = Binding affinity to 5'-CGCGGGCC-3' DNA hairpin assessed as change in fluorescence intensity at 1 uM after 45 mins by fluorescence quenching analysis relative to control
[15] = Binding affinity to 5'-GGGCCGGC-3' DNA hairpin assessed as change in fluorescence intensity at 1 uM after 45 mins by fluorescence quenching analysis relative to control
[16] = Binding affinity to 5'-CGGGCGGC-3' DNA hairpin assessed as change in fluorescence intensity at 1 uM after 45 mins by fluorescence quenching analysis relative to control
[17] = Binding affinity to 5'-GCGCCCCC-3' DNA hairpin assessed as change in fluorescence intensity at 1 uM after 45 mins by fluorescence quenching analysis relative to control
[18] = Binding affinity to 5'-GGGGGGCG-3' DNA hairpin assessed as change in fluorescence intensity at 1 uM after 45 mins by fluorescence quenching analysis relative to control
[19] = Binding affinity to 5'-CGCCCGGC-3' DNA hairpin assessed as change in fluorescence intensity at 1 uM after 45 mins by fluorescence quenching analysis relative to control
[20] = Binding affinity to 5'-GGCGGCGG-3' DNA hairpin assessed as change in fluorescence intensity at 1 uM after 45 mins by fluorescence quenching analysis relative to control
[21] = Binding affinity to 5'-CGCCGCCG-3' DNA hairpin assessed as change in fluorescence intensity at 1 uM after 45 mins by fluorescence quenching analysis relative to control
[22] = Binding affinity to 5'-GGCGCCGC-3' DNA hairpin assessed as change in fluorescence intensity at 1 uM after 45 mins by fluorescence quenching analysis relative to control
[23] = Binding affinity to 5'-CCGCCCGC-3' DNA hairpin assessed as change in fluorescence intensity at 1 uM after 45 mins by fluorescence quenching analysis relative to control
[24] = Binding affinity to 5'-GCCGCGCC-3' DNA hairpin assessed as change in fluorescence intensity at 1 uM after 45 mins by fluorescence quenching analysis relative to control
[25] = Binding affinity to 5'-GGCGCGCC-3' DNA hairpin assessed as change in fluorescence intensity at 1 uM after 45 mins by fluorescence quenching analysis relative to control
[26] = Binding affinity to 5'-CCGGCCGG-3' DNA hairpin assessed as change in fluorescence intensity at 1 uM after 45 mins by fluorescence quenching analysis relative to control
[27] = Binding affinity to 5'-GCGCGGCG-3' DNA hairpin assessed as change in fluorescence intensity at 1 uM after 45 mins by fluorescence quenching analysis relative to control
[28] = Binding affinity to 5'-GGCGCGGC-3' DNA hairpin assessed as change in fluorescence intensity at 1 uM after 45 mins by fluorescence quenching analysis relative to control
[29] = Binding affinity to 5'-CGCCGCGG-3' DNA hairpin assessed as change in fluorescence intensity at 1 uM after 45 mins by fluorescence quenching analysis relative to control
[30] = Binding affinity to 5'-GCGGCGCC-3' DNA hairpin assessed as change in fluorescence intensity at 1 uM after 45 mins by fluorescence quenching analysis relative to control
[31] = Binding affinity to 5'-GCCCGCGG-3' DNA hairpin assessed as change in fluorescence intensity at 1 uM after 45 mins by fluorescence quenching analysis relative to control
[32] = Binding affinity to 5'-GCGCCGCC-3' DNA hairpin assessed as change in fluorescence intensity at 1 uM after 45 mins by fluorescence quenching analysis relative to control
[33] = Binding affinity to 5'-GGGCGCGG-3' DNA hairpin assessed as change in fluorescence intensity at 1 uM after 45 mins by fluorescence quenching analysis relative to control
[34] = Binding affinity to 5'-CCGCCGCC-3' DNA hairpin assessed as change in fluorescence intensity at 1 uM after 45 mins by fluorescence quenching analysis relative to control
[35] = Binding affinity to 5'-GCGGCCCG-3' DNA hairpin assessed as change in fluorescence intensity at 1 uM after 45 mins by fluorescence quenching analysis relative to control
[36] = Binding affinity to 5'-GGCGGCCG-3' DNA hairpin assessed as change in fluorescence intensity at 1 uM after 45 mins by fluorescence quenching analysis relative to control

SMILES: NCC1O[C@H](O[C@H]2[C@@H](O)[C@H](O[C@@H]3[C@@H](O)[C@H](N)C[C@H](N)[C@H]3O[C@H]3O[C@H](CN)[C@@H](O)[C@H](O)[C@H]3N)O[C@@H]2CSCCNC(=O)CCSCC(=O)Nc2ccc(-c3c4ccc(=O)cc-4oc4cc(O)ccc34)c(C(=O)O)c2)[C@H](N)[C@@H](O)[C@@H]1O (stereo partly specified)
- Activity [1]: 27.2%
- Activity [2]: 28.3%
- Activity [3]: 33.4%
- Activity [4]: 36.3%
- Activity [5]: 36.7%
- Activity [6]: 38%
- Activity [7]: 38.1%
- Activity [8]: 38.1%
- Activity [9]: 40.4%
- Activity [10]: 42.9%
- Activity [11]: 43%
- Activity [12]: 43.2%
- Activity [13]: 43.2%
- Activity [14]: 44.3%
- Activity [15]: 44.4%
- Activity [16]: 45.1%
- Activity [17]: 45.7%
- Activity [18]: 46.3%
- Activity [19]: 46.6%
- Activity [20]: 46.8%
- Activity [21]: 48.1%
- Activity [22]: 48.4%
- Activity [23]: 48.7%
- Activity [24]: 48.8%
- Activity [25]: 49%
- Activity [26]: 49.1%
- Activity [27]: 49.1%
- Activity [28]: 49.4%
- Activity [29]: 49.8%
- Activity [30]: 49.9%
- Activity [31]: 50.3%
- Activity [32]: 50.4%
- Activity [33]: 51.5%
- Activity [34]: 52.2%
- Activity [35]: 52.5%
- Activity [36]: 56.4%
